One experiment concerns the target TRKA kinase (Homo sapiens (Human), UniProt P04629). The experiment can be described thus: Assay of small molecular compounds for inhibiting the activity of TRKA kinase (LANCE TR-FRET). The class given is biochemical. A digest of the protocol:
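TRKA (supplied as 2 nM 2× solution) was pre-reacted with compounds for 5 min at room temperature before a 4× ULight-TK peptide/ATP mix (400 nM/40 μM) started the 60-min dark reaction at 1% DMSO. After stop and 60-min detection, TR-FRET was read.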
On the technique in general: TR-FRET usually uses a lanthanide donor and a delayed reading to cut background.

For a further experiment, the system named is Ba/F3 LMNA-NTRK1 cells. The experiment can be described thus: Assay for inhibiting the proliferation of Ba/F3 LMNA-NTRK1 cells (CCK-8). In kind it is cell-based. The settings on record: Mus musculus, BaF3. In outline: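 Viability was read as absorbance at 450 nm following 1–2 h CCK-8 incubation at 37 °C, relative to control and blank wells.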
In the next experiment the target is MER kinase (Homo sapiens (Human), UniProt Q12866). Put plainly: Assay of small molecular compounds for inhibiting the activity of MER kinase (LANCE TR-FRET). In kind it is biochemical. A digest of the protocol: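 LANCE TR-FRET readout of ULight-poly GT phosphorylation by MER kinase; compound final range 0.042-2500 nM, 3-fold steps, 5 min enzyme preincubation. Reaction 60 min at room temperature in the dark with substrate/ATP (4× at 200 nM/20 μM), 1% DMSO, then stopped and developed 60 min; IC50 by curve fit.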

For orientation: pIC50 means the IC50 on a negative log10 scale, so that one unit is a factor of ten. Read a high pIC50 as a low IC50.

The structures appear in SMILES notation. pIC50: −log10 of the molar value. Bounds are passed on as bounds.

Sequence of TRKA kinase (P04629 33-796): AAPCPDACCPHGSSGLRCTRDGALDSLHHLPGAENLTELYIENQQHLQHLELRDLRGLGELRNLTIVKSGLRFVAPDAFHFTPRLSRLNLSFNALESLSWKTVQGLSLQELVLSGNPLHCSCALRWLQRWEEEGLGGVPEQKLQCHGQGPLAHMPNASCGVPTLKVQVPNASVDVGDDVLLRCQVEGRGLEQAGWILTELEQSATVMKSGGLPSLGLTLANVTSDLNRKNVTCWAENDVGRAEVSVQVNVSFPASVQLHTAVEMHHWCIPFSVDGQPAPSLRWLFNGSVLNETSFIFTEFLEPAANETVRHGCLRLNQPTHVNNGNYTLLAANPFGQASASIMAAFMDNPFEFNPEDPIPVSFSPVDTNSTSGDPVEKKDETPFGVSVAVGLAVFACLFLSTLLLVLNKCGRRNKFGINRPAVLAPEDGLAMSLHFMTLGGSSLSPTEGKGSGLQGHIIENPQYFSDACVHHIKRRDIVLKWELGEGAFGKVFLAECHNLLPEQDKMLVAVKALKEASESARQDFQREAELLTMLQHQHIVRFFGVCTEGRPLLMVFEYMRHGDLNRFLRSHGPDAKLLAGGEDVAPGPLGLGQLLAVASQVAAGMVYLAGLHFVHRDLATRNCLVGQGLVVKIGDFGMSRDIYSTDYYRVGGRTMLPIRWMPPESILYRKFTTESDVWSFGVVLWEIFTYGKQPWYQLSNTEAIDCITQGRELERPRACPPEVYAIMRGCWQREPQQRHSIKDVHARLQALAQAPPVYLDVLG
Sequence of MER kinase (Q12866 21-999): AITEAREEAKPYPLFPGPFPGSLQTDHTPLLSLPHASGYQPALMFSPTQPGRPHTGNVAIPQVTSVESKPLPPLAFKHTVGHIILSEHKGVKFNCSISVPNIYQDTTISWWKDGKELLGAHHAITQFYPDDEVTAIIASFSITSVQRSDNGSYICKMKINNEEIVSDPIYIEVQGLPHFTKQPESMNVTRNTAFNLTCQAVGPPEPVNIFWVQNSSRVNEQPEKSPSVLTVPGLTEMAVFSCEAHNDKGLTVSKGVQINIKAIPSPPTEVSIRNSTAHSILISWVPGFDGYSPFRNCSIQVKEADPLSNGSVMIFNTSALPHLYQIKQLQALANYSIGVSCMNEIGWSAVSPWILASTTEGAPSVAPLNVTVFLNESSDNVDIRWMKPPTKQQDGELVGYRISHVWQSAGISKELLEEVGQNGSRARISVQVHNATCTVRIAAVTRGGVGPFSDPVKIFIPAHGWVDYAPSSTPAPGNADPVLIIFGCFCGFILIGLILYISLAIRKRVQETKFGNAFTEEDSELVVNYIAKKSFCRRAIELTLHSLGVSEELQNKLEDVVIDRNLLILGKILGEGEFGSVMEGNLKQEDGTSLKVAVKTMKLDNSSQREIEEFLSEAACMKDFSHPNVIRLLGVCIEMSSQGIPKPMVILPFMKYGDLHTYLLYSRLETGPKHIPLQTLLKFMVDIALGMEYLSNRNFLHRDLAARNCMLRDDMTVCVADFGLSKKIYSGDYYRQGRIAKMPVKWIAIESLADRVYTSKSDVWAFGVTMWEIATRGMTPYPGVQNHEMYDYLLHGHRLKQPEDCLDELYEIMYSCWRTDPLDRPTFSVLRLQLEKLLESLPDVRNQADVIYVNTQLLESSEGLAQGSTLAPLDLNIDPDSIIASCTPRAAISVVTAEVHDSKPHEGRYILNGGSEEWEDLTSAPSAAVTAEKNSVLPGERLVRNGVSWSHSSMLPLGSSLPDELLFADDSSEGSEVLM

On to `CCn1cc(C(=O)Nc2ccc(Oc3ccnc4cc(OC)c5c(c34)OCCO5)cc2)c(=O)n(-c2ccc(F)cc2)c1=O` [Example 146, N-(4-((5-methoxy-2,3-dihydro-[1,4]dioxino[2,3-f]quinolin-10-yl)oxy)phenyl)-3-(4-fluorophenyl)-1-ethyl-2,4-dioxo-1,2,3,4-tetrahydropyrimidine-5-carboxamide], for which the pIC50 against TRKA kinase and in the experiment with Ba/F3 LMNA-NTRK1 cells was more than 7.30 throughout.

Consider `COc1cc2nccc(Oc3ccc(NC(=O)c4cn(C)c(=O)n(-c5ccc(F)cc5)c4=O)c(F)c3)c2c2c1OCCO2` [Example 153, N-(2-fluoro-4-((5-methoxy-2,3-dihydro-[1,4]dioxino[2,3-f]quinolin-10-yl)oxy)phenyl)-3-(4-fluorophenyl)-1-methyl-2,4-dioxo-1,2,3,4-tetrahydropyrimidine-5-carboxamide], for which the pIC50 against TRKA kinase and in the experiment with Ba/F3 LMNA-NTRK1 cells was more than 7.30 each time.

For `CCOc1ccn(-c2ccc(F)cc2)c(=O)c1C(=O)Nc1ccc(Oc2ccnc3ccc4c(c23)OCCO4)cc1F` [Example 171, N-(4-((2,3-dihydro-[1,4]dioxino[2,3-f]quinolin-10-yl)oxy)-2-fluorophenyl)-1-(4-fluorophenyl)-4-ethoxy-2-oxo-1,2-dihydropyridine-3-carboxamide], the negative-log IC50 (pIC50) against TRKA kinase is more than 7.30; against MER kinase, not below 7.30.

Consider `COc1cc2nccc(Oc3ccc(NC(=O)c4cn(C)c(=O)n(-c5ccc(F)cc5)c4=O)cc3)c2c2c1OCCO2` [Example 145, N-(4-((5-methoxy-2,3-dihydro-[1,4]dioxino[2,3-f]quinolin-10-yl)oxy)phenyl)-3-(4-fluorophenyl)-1-methyl-2,4-dioxo-1,2,3,4-tetrahydropyrimidine-5-carboxamide], for which the pIC50 against TRKA kinase and in the experiment on Ba/F3 LMNA-NTRK1 cells was more than 7.30 each time.

Regarding `COc1ccn(-c2ccc(F)cc2)c(=O)c1C(=O)Nc1ccc(Oc2ccnc3ccc4c(c23)OCCO4)cc1F` [Example 172, N-(4-((2,3-dihydro-[1,4]dioxino[2,3-f]quinolin-10-yl)oxy)-2-fluorophenyl)-1-(4-fluorophenyl)-4-methoxy-2-oxo-1,2-dihydropyridine-3-carboxamide], the pIC50 is more than 7.30 against TRKA kinase and not below 7.30 on MER kinase.

Take `COc1cc2ncnc(Oc3ccc(NC(=O)c4cn(C)c(=O)n(-c5ccc(F)cc5)c4=O)cc3F)c2c2c1OCCO2` [Example 29, N-(3-fluoro-4-((5-methoxy-2,3-dihydro-[1,4]dioxino[2,3-f]quinazolin-10-yl)oxy)phenyl)-3-(4-fluorophenyl)-1-methyl-2,4-dioxo-1,2,3,4-tetrahydropyrimidine-5-carboxamide]: the pIC50 against TRKA kinase was more than 7.30; against MER kinase, not below 7.30; with Ba/F3 LMNA-NTRK1 cells, more than 7.30.

`COc1cc2nccc(Oc3ccc(NC(=O)c4cn(C)c(=O)n(-c5ccc(F)cc5)c4=O)c(Cl)c3)c2c2c1OCCO2` [Example 125, N-(2-chloro-4-((5-methoxy-2,3-dihydro-[1,4]dioxino[2,3-f]quinolin-10-yl)oxy)phenyl)-3-(4-fluorophenyl)-1-methyl-2,4-dioxo-1,2,3,4-tetrahydropyrimidine-5-carboxamide]: the figures for the pIC50 against TRKA kinase, at MER kinase and in the experiment with Ba/F3 LMNA-NTRK1 cells were more than 7.30, 6.30 to 7.30 and more than 7.30, respectively.

Consider `CCn1cc(C(=O)Nc2ccc(Oc3ccnc4cc(OCCOC)c5c(c34)OCCO5)cc2)c(=O)n(-c2ccc(F)cc2)c1=O` [Example 148, N-(4-((5-(2-methoxyethoxy)-2,3-dihydro-[1,4]dioxino[2,3-f]quinolin-10-yl)oxy)phenyl)-3-(4-fluorophenyl)-1-ethyl-2,4-dioxo-1,2,3,4-tetrahydropyrimidine-5-carboxamide], for which the pIC50 at TRKA kinase and with Ba/F3 LMNA-NTRK1 cells was more than 7.30 each time.

As to `Cn1cc(C(=O)Nc2ccc(Oc3ccnc4ccc5c(c34)OCCO5)cc2F)c(=O)n(-c2ccc(F)cc2)c1=O` [Example 162, N-(4-((2,3-dihydro-[1,4]dioxino[2,3-f]quinolin-10-yl)oxy)-2-fluorophenyl)-3-(4-fluorophenyl)-1-methyl-2,4-dioxo-1,2,3,4-tetrahydropyrimidine-5-carboxamide], the results for the pIC50 on TRKA kinase, on MER kinase and in the experiment with Ba/F3 LMNA-NTRK1 cells were more than 7.30, 6.30 to 7.30 and more than 7.30, respectively.

As for `O=C(Nc1ccc(Oc2ccnc3ccc4c(c23)OCCO4)cc1F)c1cccn(-c2ccc(F)cc2)c1=O` [Example 170, N-(4-((2,3-dihydro-[1,4]dioxino[2,3-f]quinolin-10-yl)oxy)-2-fluorophenyl)-1-(4-fluorophenyl)-2-oxo-1,2-dihydropyridine-3-carboxamide], the pIC50 is more than 7.30 against TRKA kinase and not below 7.30 against MER kinase.

For the molecule `O=C(Nc1ccc(Oc2ccnc3cc(OCCCN4CCOCC4)c4c(c23)OCCO4)cc1Cl)c1cccn(-c2ccc(F)cc2)c1=O` [Example 143, N-(2-chloro-4-((5-(3-morpholinopropoxy)-2,3-dihydro-[1,4]dioxino[2,3-f]quinolin-10-yl)oxy)phenyl)-1-(4-fluorophenyl)-2-oxo-1,2-dihydropyridine-3-carboxamide], the pIC50 at TRKA kinase was more than 7.30; at MER kinase, not below 7.30; in the experiment with Ba/F3 LMNA-NTRK1 cells, more than 7.30.

Take `Cn1cc(C(=O)Nc2ccc(Oc3ccnc4cc(OCCCN5CCCCC5)c5c(c34)OCCO5)cc2Cl)c(=O)n(-c2ccc(F)cc2)c1=O` [Example 137, N-(2-chloro-4-((5-((3-piperidin-1-yl)propoxy)-2,3-dihydro-[1,4]dioxino[2,3-f]quinolin-10-yl)oxy)phenyl)-3-(4-fluorophenyl)-1-methyl-2,4-dioxo-1,2,3,4-tetrahydropyrimidine-5-carboxamide]: the figures for the pIC50 on TRKA kinase, at MER kinase and with Ba/F3 LMNA-NTRK1 cells were more than 7.30, not below 7.30 and more than 7.30, respectively.

Consider `CCOc1cc2nccc(Oc3ccc(NC(=O)c4cccn(-c5ccc(F)cc5)c4=O)c(Cl)c3)c2c2c1OCCO2` [Example 127, N-(2-chloro-4-((5-ethoxy-2,3-dihydro-[1,4]dioxino[2,3-f]quinolin-10-yl)oxy)phenyl)-1-(4-fluorophenyl)-2-oxo-1,2-dihydropyridine-3-carboxamide], for which the pIC50 is more than 7.30 on TRKA kinase, not below 7.30 against MER kinase and more than 7.30 in the experiment on Ba/F3 LMNA-NTRK1 cells.

`COCCOc1cc2nccc(Oc3ccc(NC(=O)c4cn(C)c(=O)n(-c5ccc(F)cc5)c4=O)cc3)c2c2c1OCCO2` [Example 147, N-(4-((5-(2-methoxyethoxy)-2,3-dihydro-[1,4]dioxino[2,3-f]quinolin-10-yl)oxy)phenyl)-3-(4-fluorophenyl)-1-methyl-2,4-dioxo-1,2,3,4-tetrahydropyrimidine-5-carboxamide]: the pIC50 at TRKA kinase and with Ba/F3 LMNA-NTRK1 cells was more than 7.30 each time.

Consider `Cn1cc(C(=O)Nc2ccc(Oc3ccnc4cc(OCC(C)(C)O)c5c(c34)OCCO5)cc2)c(=O)n(-c2ccc(F)cc2)c1=O` [Example 149, N-(4-((5-(2-hydroxy-2-methylpropoxy)-2,3-dihydro-[1,4]dioxino[2,3-f]quinolin-10-yl)oxy)phenyl)-3-(4-fluorophenyl)-1-methyl-2,4-dioxo-1,2,3,4-tetrahydropyrimidine-5-carboxamide], for which the pIC50 on TRKA kinase and with Ba/F3 LMNA-NTRK1 cells was more than 7.30 each time.

As to `CCn1cc(C(=O)Nc2ccc(Oc3ccnc4cc(OCCOC)c5c(c34)OCCO5)cc2F)c(=O)n(-c2ccc(F)cc2)c1=O` [Example 156, N-(2-fluoro-4-((5-(2-methoxyethoxy)-2,3-dihydro-[1,4]dioxino[2,3-f]quinolin-10-yl)oxy)phenyl)-3-(4-fluorophenyl)-1-ethyl-2,4-dioxo-1,2,3,4-tetrahydropyrimidine-5-carboxamide], the pIC50 on TRKA kinase and with Ba/F3 LMNA-NTRK1 cells was more than 7.30 throughout.

As for `CCn1cc(C(=O)Nc2ccc(Oc3ccnc4cc(OCC(C)(C)O)c5c(c34)OCCO5)cc2)c(=O)n(-c2ccc(F)cc2)c1=O` [Example 150, N-(4-((5-(2-hydroxy-2-methylpropoxy)-2,3-dihydro-[1,4]dioxino[2,3-f]quinolin-10-yl)oxy)phenyl)-3-(4-fluorophenyl)-1-ethyl-2,4-dioxo-1,2,3,4-tetrahydropyrimidine-5-carboxamide], the pIC50 at TRKA kinase and in the experiment on Ba/F3 LMNA-NTRK1 cells was more than 7.30 in each case.

For `COCCOc1cc2nccc(Oc3ccc(NC(=O)c4cn(C)c(=O)n(-c5ccc(F)cc5)c4=O)c(F)c3)c2c2c1OCCO2` [Example 155, N-(2-fluoro-4-((5-(2-methoxyethoxy)-2,3-dihydro-[1,4]dioxino[2,3-f]quinolin-10-yl)oxy)phenyl)-3-(4-fluorophenyl)-1-methyl-2,4-dioxo-1,2,3,4-tetrahydropyrimidine-5-carboxamide], the pIC50 at TRKA kinase and in the experiment on Ba/F3 LMNA-NTRK1 cells was more than 7.30 throughout.

In the case of `O=C(Nc1ccc(Oc2ccnc3ccc4c(c23)OCCO4)c(F)c1)c1cccn(-c2ccc(F)cc2)c1=O` [Example 169, N-(4-((2,3-dihydro-[1,4]dioxino[2,3-f]quinolin-10-yl)oxy)-3-fluorophenyl)-1-(4-fluorophenyl)-2-oxo-1,2-dihydropyridine-3-carboxamide], the pIC50 at TRKA kinase is more than 7.30; against MER kinase, not below 7.30.

On to `CCn1cc(C(=O)Nc2cc(F)c(Oc3ccnc4cc(OCCOC)c5c(c34)OCCO5)cc2C)c(=O)n(-c2ccc(F)cc2)c1=O` [Example 180, N-(5-fluoro-4-((5-(2-methoxyethoxy)-2,3-dihydro-[1,4]dioxino[2,3-f]quinolin-10-yl)oxy)-2-methylphenyl)-3-(4-fluorophenyl)-1-ethyl-2,4-dioxo-1,2,3,4-tetrahydropyrimidine-5-carboxamide], for which the pIC50 against TRKA kinase and with Ba/F3 LMNA-NTRK1 cells was more than 7.30 throughout.

The values are drawn from patent publication US12202835B2, “Substituted aromatic ring-linked dioxinoquinazolines and dioxinoquinolines as kinase inhibitors” (BEIJING SCITECH-MQ PHARMACEUTICALS LIMITED, priority 2018, dated 2025).
